Where two headings read alike, the source gives them in different places.
Key:
[1] = tested on: malignant cells from B-cell chronic lymphocytic leukemia (B-CLL); details: in vitro; cited from earlier work
CDK1/CyclinB = biological target: T1, CDK1/CyclinB (Homo sapiens, UniProt P06493); assay: Activated CDK1/CyclinB kinase inhibitory activity assay; type: biochemical
T1 construct: purchased Upstate Discovery
Description: CDK1/CyclinB assay is identical to the CDK2/CyclinA above except that CDK1/CyclinB (Upstate Discovery) is used and the enzyme is diluted to 6.25 nM.

HCT-116 cell line = assay: Anti-proliferative activity, Alamar Blue assay; type: cell-based, human; details: for IC50: read-out: HCT-116 cell proliferation IC50, 72 hours with compound
Description: (§1) Inhibition of cell growth is measured using the Alamar Blue assay (Nociari, M. M, Shalev, A., Benias, P., Russo, C. Journal of Immunological Methods 1998, 213, 157-167). The method is based on the ability of viable cells to reduce resazurin to its fluorescent product resorufin. For each proliferation assay cells are plated onto 96 well plates and allowed to recover for 16 hours prior to the addition of inhibitor compounds for a further 72 hours. At the end of the incubation period 10% (v/v) Alamar Blue is added and incubated for a further 6 hours prior to determination of fluorescent product at 535nM ex/590nM em. In the case of the non-proliferating cell assay cells are maintained at confluence for 96 hour prior to the addition of inhibitor compounds for a further 72 hours. The number of viable cells is determined by Alamar Blue assay as before. Cell lines can be obtained from the ECACC (European Collection of cell Cultures).
as §1, with “535 nM ex/590 nM” for “535nM ex/590nM”, “EC ACC” for “ECACC”

[2] = Determination of oral bioavailability; type: in vivo; details: balb/c, mouse, plasma, 5 mg/kg, mice
Description: The oral bioavailability of the compound of formula (I) may be determined as follows.
The test compound is administered as a solution both I.V. and orally to balb/c mice at the following dose level and dose formulations; • 1 mg/kg IV formulated in 10%DMSO/90% (2-hydroxypropyl)-β-cyclodextrin (25% w/v); and • 5 mg/kg PO formulated in 10% DMSO/20% water/70% PEG200.
At various time points after dosing, blood samples are taken in heparinised tubes and the plasma fraction is collected for analysis. The analysis is undertaken by LC-MS/MS after protein precipitation and the samples are quantified by comparison with a standard calibration line constructed for the test compound. The area under the curve (AUC) is calculated from the plasma level vs time profile by standard methods. The oral bioavailability as a percentage is calculated from the following equation: […]

[3] = tested on: human tumour derived cell lines; assay: Xenograft studies; type: in vivo, nude mice; details: sub-cutaneous xenografts, dosed orally
Source text: These biomarkers include suppression of phosphorylation of substrates of the cyclin dependent kinases e.g. retinoblastoma protein. The compound is effective when given in a range of different schedules including chronic dosing for several weeks.

[4] = Vapour sorption/desorption analysis; type: physicochemical; details: 25 °C
Description: Approximately 20 mg of sample was placed into a wire-mesh vapour sorption balance pan and loaded into an ‘IgaSorp’ vapour sorption balance (Hiden Analytical Instruments) held at 25±0.1° C. The sample was then dried by maintaining a 0% humidity environment (using mass flow control apparatus) until no further weight change was recorded. Subsequently, the sample was then subjected to a ramping profile from 0-90% relative humidity (% RH) at 10% RH increments, maintaining the sample at each step until equilibration had been attained (99.5% step completion).
Upon reaching equilibration, the % RH within the apparatus was ramped to the next step and the equilibration procedure repeated. After completion of the sorption cycle, the sample was then dried using the same procedure. The weight change during the sorption/desorption cycles was then monitored, allowing for the hygroscopic nature of the sample to be determined.

[5] = tested on: transcription in HCT-116 cells

T1 sequence (P06493 whole entry): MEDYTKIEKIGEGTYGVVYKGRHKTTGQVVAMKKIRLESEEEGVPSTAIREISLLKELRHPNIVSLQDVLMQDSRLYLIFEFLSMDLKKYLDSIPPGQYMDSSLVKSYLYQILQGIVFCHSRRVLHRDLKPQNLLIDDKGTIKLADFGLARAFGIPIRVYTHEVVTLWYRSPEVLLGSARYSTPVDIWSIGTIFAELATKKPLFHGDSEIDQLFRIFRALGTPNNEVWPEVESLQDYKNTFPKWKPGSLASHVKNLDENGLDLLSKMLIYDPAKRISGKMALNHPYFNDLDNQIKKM
T1 sequence (P14635 whole entry partner): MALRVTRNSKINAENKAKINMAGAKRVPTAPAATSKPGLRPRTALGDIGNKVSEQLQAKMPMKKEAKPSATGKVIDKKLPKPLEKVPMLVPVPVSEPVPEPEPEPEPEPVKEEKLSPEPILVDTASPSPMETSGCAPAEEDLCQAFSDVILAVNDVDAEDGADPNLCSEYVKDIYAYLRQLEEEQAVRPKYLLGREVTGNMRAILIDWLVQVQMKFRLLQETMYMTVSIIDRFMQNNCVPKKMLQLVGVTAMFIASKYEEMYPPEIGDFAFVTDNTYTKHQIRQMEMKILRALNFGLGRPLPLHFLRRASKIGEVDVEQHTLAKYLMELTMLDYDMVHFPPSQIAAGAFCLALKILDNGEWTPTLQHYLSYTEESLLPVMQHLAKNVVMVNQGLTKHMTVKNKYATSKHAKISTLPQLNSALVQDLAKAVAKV

**Q.** Which “Apoptosis of B-CLL cells” value [1] does the source give for `CC[C@H](CO)Nc1nc(NCc2ccccc2)c2ncn(C(C)C)c2n1` [CYC 202] here?
**A.** induce in vitro apoptosis

**Q.** What does the source list for `CS(=O)(=O)N1CCC(NC(=O)c2n[nH]cc2NC(=O)c2c(Cl)cccc2Cl)CC1` [compound of the invention, 4-(2,6-dichloro-benzoylamino)-1H-pyrazole-3-carboxylic acid (1-methanesulphonyl-piperidin-4-yl)-amide]?
**A.** IC50 (CDK1/CyclinB): < 1 µM; More potent anti-proliferative effect on HCT-116 compared to difluoro-analogue (HCT-116 cell line): 6-7 fold; IC50 (HCT-116 cell line): < 1 µM; IC50 (HCT-116 cell line; listed as Compound of the Invention): 0.11 µM; bioavailability [2]: 40 to 50%; Effect on tumour growth in xenografts [3]: inhibition of tumour growth; Weight loss during initial drying ([4]; 0% RH): approximately 0.01%; Total weight increase ([4]; upon equilibration at 90% RH): 0.24%; IC50 for transcription higher than IC50 for proliferation [5]: ~100 fold

**Q.** With `CN1CC[C@H](c2c(O)cc(O)c3c(=O)cc(-c4ccccc4Cl)oc23)[C@H](O)C1` [Flavopiridol] as the compound, how does the “Apoptosis of B-CLL cells” value [1] read?
**A.** induce in vitro apoptosis
